Source: ChEMBL document CHEMBL1201862, “PubChem BioAssay data set” (2004)
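The compound was tested at five concentrations on cells cultured in 96-well plates, with a 48-hour exposure period. GI50 = concentration required for 50% inhibition of growth.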 The source made the active and inactive calls. Cut-off read from the data, not from the text of the source: active = GI50 up to about 1.1 µM and inactive = higher. Where a SMILES comes first, the peptide text is derived from it. [ ]: non-standard residue; d: D form. The star is where a group is joined. ξ: configuration not given here. ξD = NC(CC(=O)O)C(=O)O; Boc = CC(C)(C)OC(=O)*; Aib = CC(C)(N)C(=O)O; OBn = c1ccc(CO*)cc1

Tests used:
Assay in all cases: growth of human tumour cells (NCI), 48 h
NCI/ADR-RES = tested on: NCI/ADR-RES
SK-MEL-5 = tested on: SK-MEL-5
CAKI-1 = tested on: CAKI-1
SW-620 = tested on: SW-620
RXF 393 = tested on: RXF 393
ACHN = tested on: ACHN
OVCAR-4 = tested on: OVCAR-4
NCI-H460 = tested on: NCI-H460
SK-MEL-28 = tested on: SK-MEL-28
HCT-116 = tested on: HCT-116
OVCAR-5 = tested on: OVCAR-5
KM12 = tested on: KM12
PC-3 = tested on: PC-3
DU-145 = tested on: DU-145
NCI-H522 = tested on: NCI-H522
HL-60 = tested on: HL-60
MDA-MB-231 = tested on: MDA-MB-231
UACC-257 = tested on: UACC-257
EKVX = tested on: EKVX
Malme-3M = tested on: Malme-3M

Compound	GI50 (NCI/ADR-RES)	GI50 (SK-MEL-5)	GI50 (CAKI-1)	GI50 (SW-620)	GI50 (RXF 393)	GI50 (ACHN)	GI50 (OVCAR-4)	GI50 (NCI-H460)	GI50 (SK-MEL-28)	GI50 (HCT-116)	GI50 (OVCAR-5)	GI50 (KM12)	GI50 (PC-3)	GI50 (DU-145)	GI50 (NCI-H522)	GI50 (HL-60)	GI50 (MDA-MB-231)	GI50 (UACC-257)	GI50 (EKVX)	GI50 (Malme-3M)
O=[N+]([O-])c1ccc(/C=N/n2c(S)nnc2CCc2nnc(S)n2/N=C/c2ccc([N+](=O)[O-])o2)o1	23.8 µM (inactive)	17.3 µM (inactive)	20.2 µM (inactive)	16.7 µM (inactive)	16.7 µM (inactive)	23.1 µM (inactive)	19.3 µM (inactive)	84.5 µM (inactive)	16.6 µM (inactive)	15.3 µM (inactive)	> 100 µM (inactive)	22.8 µM (inactive)	82.6 µM (inactive)	16.2 µM (inactive)	22.2 µM (inactive)	33.6 µM (inactive)	24.7 µM (inactive)	22.4 µM (inactive)	> 100 µM (inactive)	
O=C(O)/C=C\C(=O)Nn1c(Cc2ccc(Cl)cc2)n[nH]c1=O	> 100 µM (inactive)	> 100 µM (inactive)	> 100 µM (inactive)		> 100 µM (inactive)		> 100 µM (inactive)	> 100 µM (inactive)		> 100 µM (inactive)	> 100 µM (inactive)		> 100 µM (inactive)	> 100 µM (inactive)	> 100 µM (inactive)	> 100 µM (inactive)	> 100 µM (inactive)	> 100 µM (inactive)	> 100 µM (inactive)	> 100 µM (inactive)
O=C(CCc1ccccc1)On1c(-c2ccccc2)nc2ccccc2c1=S	4.08 µM (inactive)	4.47 µM (inactive)	5.68 µM (inactive)	8.26 µM (inactive)	18.6 µM (inactive)	5.69 µM (inactive)	2.9 µM (inactive)	1.35 µM (inactive)	16.1 µM (inactive)	2.01 µM (inactive)	18.9 µM (inactive)	3.87 µM (inactive)	4.73 µM (inactive)	9.71 µM (inactive)		3.05 µM (inactive)	51.5 µM (inactive)	22.9 µM (inactive)	6.78 µM (inactive)	3.61 µM (inactive)
Clc1ccc(Cl)c(/N=N\c2cc3c4c(c2)CCN4CCC3)c1	> 10 µM (inactive)	> 10 µM (inactive)	> 10 µM (inactive)	> 10 µM (inactive)	8.65 µM (inactive)	> 10 µM (inactive)	> 10 µM (inactive)	> 10 µM (inactive)	> 10 µM (inactive)	> 10 µM (inactive)		> 10 µM (inactive)	> 10 µM (inactive)	> 10 µM (inactive)	> 10 µM (inactive)	> 10 µM (inactive)	> 10 µM (inactive)	> 10 µM (inactive)	> 10 µM (inactive)	> 10 µM (inactive)
Nc1c(Br)cc(-c2nc3ccccc3s2)cc1Br	> 100 µM (inactive)	> 100 µM (inactive)	> 100 µM (inactive)	> 100 µM (inactive)	> 100 µM (inactive)	> 100 µM (inactive)		> 100 µM (inactive)	> 100 µM (inactive)	> 100 µM (inactive)	> 100 µM (inactive)	75.7 µM (inactive)	> 100 µM (inactive)	> 100 µM (inactive)	> 100 µM (inactive)	> 100 µM (inactive)	> 100 µM (inactive)	> 100 µM (inactive)	> 100 µM (inactive)	> 100 µM (inactive)
O=C(O)[C@@H]1C2CC([C@@H]1C(=O)O)[C@H](N1C(=O)CCC1=O)[C@@H]2Br (some centres undefined)	> 100 µM (inactive)	> 100 µM (inactive)		> 100 µM (inactive)	> 100 µM (inactive)	> 100 µM (inactive)	> 100 µM (inactive)	> 100 µM (inactive)	> 100 µM (inactive)	> 100 µM (inactive)	> 100 µM (inactive)	> 100 µM (inactive)	> 100 µM (inactive)	> 100 µM (inactive)	> 100 µM (inactive)	> 100 µM (inactive)	> 100 µM (inactive)	> 100 µM (inactive)	> 100 µM (inactive)	> 100 µM (inactive)
CCOC(=O)/C=C(/C(=O)OCC)n1c(=O)c(C)cn(C2CC(N=[N+]=[N-])C(CO)O2)c1=O (centres undefined)	> 100 µM (inactive)		31.6 µM (inactive)	17 µM (inactive)	24.2 µM (inactive)	32.9 µM (inactive)	32.6 µM (inactive)	47.4 µM (inactive)	29.4 µM (inactive)	37.2 µM (inactive)	> 100 µM (inactive)	50.1 µM (inactive)	13.5 µM (inactive)	43.5 µM (inactive)	20.7 µM (inactive)	2.31 µM (inactive)	20.7 µM (inactive)	22.1 µM (inactive)	28.1 µM (inactive)	54.3 µM (inactive)
C[C@H](CCC(=O)O[C@@H]1CC[C@@]2(C)C(CC[C@H]3[C@@H]4CC[C@H]([C@H](C)CCc5nc6ccccc6[nH]5)[C@@]4(C)CC[C@@H]32)C1)[C@H]1CC[C@H]2[C@@H]3CCC4C[C@H](O)CC[C@]4(C)[C@H]3CC[C@]12C (some centres undefined)	> 100 µM (inactive)	> 100 µM (inactive)	> 31.3 µM (inactive)	> 100 µM (inactive)	> 100 µM (inactive)	4.13 µM (inactive)	0.501 µM (active)	0.518 µM (active)	> 100 µM (inactive)	> 100 µM (inactive)	> 100 µM (inactive)	> 100 µM (inactive)	> 100 µM (inactive)	> 100 µM (inactive)	3.16 µM (inactive)	> 100 µM (inactive)	> 67.9 µM (inactive)	> 100 µM (inactive)	> 100 µM (inactive)	
Clc1cc(N/N=C(/c2ccccc2)c2ncccn2)ncn1	20.1 µM (inactive)	25.8 µM (inactive)	7.96 µM (inactive)	7.18 µM (inactive)	19.8 µM (inactive)	4.78 µM (inactive)	22.1 µM (inactive)	19.3 µM (inactive)	36.9 µM (inactive)	7.26 µM (inactive)	85.5 µM (inactive)	43 µM (inactive)	32.7 µM (inactive)	39.2 µM (inactive)	2.56 µM (inactive)		20.2 µM (inactive)	20.9 µM (inactive)	17 µM (inactive)	
CC(C)(C)OC(=O)NC(CC(=O)OCc1ccccc1)C(=O)NC(C)(C)C(N)=O (centres undefined) (Boc-[ξD](OBn)-[Aib]-NH2)	> 100 µM (inactive)	> 100 µM (inactive)	> 100 µM (inactive)	> 100 µM (inactive)	> 100 µM (inactive)	> 100 µM (inactive)	> 100 µM (inactive)	> 100 µM (inactive)	> 100 µM (inactive)	> 100 µM (inactive)	> 100 µM (inactive)	> 100 µM (inactive)	> 100 µM (inactive)	> 100 µM (inactive)	> 100 µM (inactive)		> 100 µM (inactive)	> 100 µM (inactive)	> 100 µM (inactive)	> 100 µM (inactive)
COc1ccc(C2N(c3ccc(C)c(N=C=O)c3)C(=O)N3C(c4ccc(OC)cc4)N(c4ccc(C)c(N=C=O)c4)C(=O)N23)cc1 (centres undefined)	> 100 µM (inactive)	> 100 µM (inactive)	> 100 µM (inactive)	> 100 µM (inactive)	> 100 µM (inactive)	> 100 µM (inactive)	> 100 µM (inactive)	> 100 µM (inactive)	> 100 µM (inactive)	> 100 µM (inactive)	> 100 µM (inactive)	> 100 µM (inactive)	> 100 µM (inactive)	> 100 µM (inactive)		> 100 µM (inactive)	> 100 µM (inactive)	> 100 µM (inactive)	> 100 µM (inactive)	25.8 µM (inactive)
COc1ccc(C(=O)c2sc(Nc3ccccc3)nc2N)cc1	> 100 µM (inactive)	> 100 µM (inactive)		2.69 µM (inactive)	13.4 µM (inactive)	> 100 µM (inactive)	10.7 µM (inactive)	> 100 µM (inactive)	> 100 µM (inactive)		> 100 µM (inactive)		> 72.8 µM (inactive)	> 68.9 µM (inactive)	6.82 µM (inactive)	2.2 µM (inactive)	> 75.7 µM (inactive)	> 100 µM (inactive)	60.5 µM (inactive)	> 100 µM (inactive)
N#Cc1c(-c2ccc(Cl)cc2)c(C#N)c(=O)n(NS(=O)(=O)c2ccccc2)c1S	21.2 µM (inactive)	14.2 µM (inactive)	26.2 µM (inactive)	26.2 µM (inactive)	35.8 µM (inactive)	24.9 µM (inactive)	56.6 µM (inactive)	18.8 µM (inactive)		25.5 µM (inactive)	54.7 µM (inactive)		19.1 µM (inactive)	52.8 µM (inactive)	18.2 µM (inactive)	16.6 µM (inactive)	26.7 µM (inactive)	46.7 µM (inactive)	32.6 µM (inactive)	25.9 µM (inactive)
CCCCCCCC/C=C\CCCCCCCC(=O)OC[C@]1(CO)CCC(=O)O1	> 100 µM (inactive)	> 100 µM (inactive)	> 100 µM (inactive)	> 100 µM (inactive)	> 100 µM (inactive)	> 100 µM (inactive)	> 100 µM (inactive)	> 100 µM (inactive)	> 100 µM (inactive)	> 100 µM (inactive)	> 100 µM (inactive)	> 100 µM (inactive)	> 100 µM (inactive)	> 100 µM (inactive)	> 100 µM (inactive)		> 100 µM (inactive)	> 100 µM (inactive)	> 100 µM (inactive)	> 100 µM (inactive)
